Counter-ions that a name gives are not always drawn. Like-named read-outs stand apart in the source and are kept apart here.
Key:
[1] = tested on: T-cell proliferation; experiment: T-Lymphocyte proliferation assay (PHA-activated PBMCs, Alamar blue); format: cell-based; conditions: human PBMC T-cells activated with phytohemagglutinin-L, 48 h, in vitro; for IC50: T-cell, read-out: IC50 against T-cell proliferation
[2] = tested on: TNF-α production; experiment: Cytokine inhibition assay (TNF-α by ELISA in LPS-stimulated, PMA-differentiated THP-1 cells); format: cell-based, human; conditions: for IC50: Homo sapiens, read-out: IC50 against TNF-α production
[3] = tested on: nitric oxide (NO) production; experiment: Nitric oxide assay (LPS-induced J774.2 macrophages, Griess method); format: cell-based, mouse
[4] = target: T1, human placental aromatase enzyme (Homo sapiens, UniProt P11511); experiment: Human placental aromatase inhibition assay; format: biochemical
T1 construct: from tissue; host or cells: human placenta
T1 sequence (P11511 1-503): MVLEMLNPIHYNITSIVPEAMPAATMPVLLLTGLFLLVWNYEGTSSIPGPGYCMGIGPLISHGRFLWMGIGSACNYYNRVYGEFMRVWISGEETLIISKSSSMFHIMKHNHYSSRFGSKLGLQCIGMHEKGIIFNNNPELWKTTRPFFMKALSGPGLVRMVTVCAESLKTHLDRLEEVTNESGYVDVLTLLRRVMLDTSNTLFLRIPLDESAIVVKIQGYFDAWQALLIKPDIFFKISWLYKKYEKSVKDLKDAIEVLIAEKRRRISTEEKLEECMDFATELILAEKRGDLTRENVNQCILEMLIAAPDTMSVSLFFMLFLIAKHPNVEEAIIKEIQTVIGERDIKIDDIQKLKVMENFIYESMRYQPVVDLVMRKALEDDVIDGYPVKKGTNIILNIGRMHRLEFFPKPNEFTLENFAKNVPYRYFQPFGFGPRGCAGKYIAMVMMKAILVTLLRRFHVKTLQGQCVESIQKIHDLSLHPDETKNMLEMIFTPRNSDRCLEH

[5] = Cytotoxicity against BJ normal cell line; conditions: human, BJ normal human fibroblast cells
[6] = THP-1 cells differentiated with PMA, LPS-stimulated, 4 h, in vitro
[7] = J774.2 mouse macrophages, LPS-induced, in vitro, read-out: IC50 against nitric oxide (NO) production
[8] = testosterone to 17β-estradiol conversion, in vitro, read-out: IC50 against human placental aromatase enzyme
[9] = Mus musculus, J774.2, read-out: IC50 against nitric oxide (NO) production

SMILES	IC50 [1]	IC50 against TNF-α production [2, 6]	IC50 [3, 7]	IC50 [4, 8]	other results
C[C@]12C=CC(=O)C=C1CC[C@@H]1[C@@H]2[C@@H](O)C[C@@]2(C)[C@H]1CC[C@]2(O)C(=O)CO [prednisolone, reference compound]	9.75 ± 0.03 µM				
CC1=CC2=CC(=O)CC[C@@H]2[C@H]2CC[C@@]3(C)[C@@H](CC[C@]3(C)O)[C@H]12 [Compound 2, 17β-hydroxy-7α,17α-dimethylestr-4,6-diene-3-one]	3.83 ± 0.3 µM	inactive	54.4 ± 0.3 µM	0.31 ± 0.028 µM	
C[C@@H]1C[C@H]2C[C@H](O)CC[C@]2(O)[C@H]2CC[C@@]3(C)[C@@H](CC[C@]3(C)O)[C@H]12 [Compound 4, 3α,10β,17β-trihydroxy-7α,17α-dimethyl-5α-estrane]				0.072 ± 0.001 µM	IC50 against T-cell proliferation [1]: inactive; IC50 ([2]; THP-1, 4 h): 28.5 ± 0.07 µM; IC50 [3, 9]: 58 ± 0.1 µM
CNC(=N)NCCC[C@H](N)C(=O)O [L-NMMA, NG-Monomethyl-L-arginine, monoacetate salt, reference compound]			128.2 ± 0.8 µM		
CC(=O)CCCCn1c(=O)c2c(ncn2C)n(C)c1=O [pentoxifylline, reference compound]					IC50 ([2]; THP-1, 4 h): 341 ± 2.1 µM
C[C@@H]1CC2=CC(=O)CC[C@@H]2[C@H]2CC[C@@]3(C)[C@@H](CC[C@]3(C)O)[C@@H]21 [Compound 1, Mibolerone]	6.55 ± 0.6 µM		46 ± 2.4 µM		IC50 [2, 6]: 115.8 ± 0.7 µM; IC50 [4]: 0.372 ± 0.009 µM; IC50 [5]: 80 ± 2.1 µM
C[C@@H]1Cc2cc(O)ccc2[C@@H]2[C@@H]1[C@@H]1CC[C@](C)(O)[C@@]1(C)C[C@@H]2O [Compound 3, 11β,17β-dihydroxy-7α,17α-dimethyl-estra-1,3,5-triene-3-one]	4.24 ± 0.2 µM	inactive		0.317 ± 0.012 µM	IC50 [3, 9]: 49.1 ± 0.4 µM
C[C@@H]1C(=O)C2CC(=O)CC[C@@H]2[C@H]2CC[C@@]3(C)[C@@H](CC[C@]3(C)O)[C@@H]21 (stereo partly drawn) [Compound 5, 17β-hydroxy-7α,17α-dimethyl-5α-estrane-3,6-dione]		inactive	52.7 ± 0.3 µM		IC50 against T-cell proliferation [1]: inactive; IC50 against human placental aromatase enzyme ([4]; testosterone to 17β-estradiol conversion, in vitro): inactive

From patent US20210369740A1, “Synthesis of Anti-inflammatory and Anti-cancer Agents through Fungal Transformation of Mibolerone” (priority 2021, published 2021)
